The values that follow come from US9102752B2, “Peptide vaccine for prevention and immunotherapy of dementia of the Alzheimer's type” (United Biomedical, Inc., priority 2013, dated 2015).

Assay [1] concerns anti-Aβ antibodies in sera of vaccinated patients. Briefly: Epitope mapping, competitive binding inhibition EIA with patient sera (10-mer peptides, IC50). As to conditions: for Epitope mapping, fine specificity analysis, serum of subject P101: serum 16 wpi of vaccinated patient P101; for Epitope mapping, fine specificity analysis, serum of subject P102: serum 16 wpi of vaccinated patient P102; for Epitope mapping, fine specificity analysis, serum of subject P103: serum 16 wpi of vaccinated patient P103; for Epitope mapping, fine specificity analysis, serum of subject P104: serum 16 wpi of vaccinated patient P104; for Epitope mapping, fine specificity analysis, serum of subject P105: serum 16 wpi of vaccinated patient P105; for Epitope mapping, fine specificity analysis, serum of subject P106: serum 16 wpi of vaccinated patient P106; for Epitope mapping, fine specificity analysis, serum of subject P107: serum 16 wpi of vaccinated patient P107; for Epitope mapping, fine specificity analysis, serum of subject P108: serum 16 wpi of vaccinated patient P108; for Epitope mapping, fine specificity analysis, serum of subject P109: serum 16 wpi of vaccinated patient P109; for Epitope mapping, fine specificity analysis, serum of subject P201: serum 16 wpi of vaccinated patient P201; for Epitope mapping, fine specificity analysis, serum of subject P202: serum 16 wpi of vaccinated patient P202; for Epitope mapping, fine specificity analysis, serum of subject P203: serum 16 wpi of vaccinated patient P203; for Epitope mapping, fine specificity analysis, serum of subject P204: serum 16 wpi of vaccinated patient P204; for Epitope mapping, fine specificity analysis, serum of subject P205: serum 16 wpi of vaccinated patient P205; for Epitope mapping, fine specificity analysis, serum of subject P206: serum 16 wpi of vaccinated patient P206; for Epitope mapping, fine specificity analysis, serum of subject P207: serum 16 wpi of vaccinated patient P207; for Epitope mapping, fine specificity analysis, serum of subject P208: serum 16 wpi of vaccinated patient P208; for Epitope mapping, fine specificity analysis, serum of subject P209: serum 16 wpi of vaccinated patient P209; for Epitope mapping, fine specificity analysis, serum of subject P210: serum 16 wpi of vaccinated patient P210. Set-up: species or system human; Epitope mapping, fine specificity analysis, serum of subject P210: unit not given here.

Assay [2] relates to anti-Aβ antibodies in macaque antisera. Briefly: Specificity analysis (10-mer peptide ELISA) of antisera from Cynomolgus macaques. In kind it is binding.
[3] abbreviates: antisera of macaques given UBI AD Vaccine 150 μg/dose, 9 WPI.
Setting [4] is: antisera of macaques given UBI AD Vaccine 150 μg/dose, 15 WPI.
[5] abbreviates: antisera of macaques given UBI AD Vaccine 750 μg/dose, 9 WPI.
The mark [6] stands for this setting: antisera of macaques given UBI AD Vaccine 750 μg/dose, 15 WPI.

“18 (EFRHDSGYEV; PEPTIDE (1)..(10) Abeta 3-12 or APP 770(E674-V683); listed as Homo sapiens) [compound 18]”: in assay [1], the “Epitope mapping, fine specificity analysis, serum of subject P101” value (“Epitope mapping … of subject P101” for short) is 0; the “Epitope mapping, fine specificity analysis, serum of subject P102” value (“Epitope mapping … of subject P102” for short) was determined as 0; the “Epitope mapping, fine specificity analysis, serum of subject P103” value (“Epitope mapping … of subject P103” for short) was 0; the “Epitope mapping, fine specificity analysis, serum of subject P104” value (“Epitope mapping … of subject P104” for short) was 0. Further, in assay [1], the “Epitope mapping, fine specificity analysis, serum of subject P105” value (“Epitope mapping … of subject P105” for short) worked out at 0; the “Epitope mapping, fine specificity analysis, serum of subject P106” value (“Epitope mapping … of subject P106” for short) came to 0; the “Epitope mapping, fine specificity analysis, serum of subject P107” value (“Epitope mapping … of subject P107” for short) is on record as 0; the “Epitope mapping, fine specificity analysis, serum of subject P108” value (“Epitope mapping … of subject P108” for short) is given as 0. For the same substance, in assay [1], the “Epitope mapping, fine specificity analysis, serum of subject P109” value (“Epitope mapping … of subject P109” for short) is 0; the “Epitope mapping, fine specificity analysis, serum of subject P201” value (“Epitope mapping … of subject P201” for short) was 0; the “Epitope mapping, fine specificity analysis, serum of subject P202” value (“Epitope mapping … of subject P202” for short) turned out to be 0; the “Epitope mapping, fine specificity analysis, serum of subject P203” value (“Epitope mapping … of subject P203” for short) is reported as 0. Besides, in assay [1], the “Epitope mapping, fine specificity analysis, serum of subject P204” value (“Epitope mapping … of subject P204” for short) was found to be 0; the “Epitope mapping, fine specificity analysis, serum of subject P205” value (“Epitope mapping … of subject P205” for short) worked out at 0; the “Epitope mapping, fine specificity analysis, serum of subject P206” value (“Epitope mapping … of subject P206” for short) is reported as 0; the “Epitope mapping, fine specificity analysis, serum of subject P207” value (“Epitope mapping … of subject P207” for short) is reported as 0. In addition, in assay [1], the “Epitope mapping, fine specificity analysis, serum of subject P208” value (“Epitope mapping … of subject P208” for short) worked out at 0; the “Epitope mapping, fine specificity analysis, serum of subject P209” value (“Epitope mapping … of subject P209” for short) is reported as 0; the “Epitope mapping, fine specificity analysis, serum of subject P210” value (“Epitope mapping … of subject P210” for short) stood at 0. For the same substance, the “Reactivity of antisera with peptide (specificity analysis ELISA)” value (“Reactivity of antisera with peptide” for short) in assay [2] (setting [3]) is on record as 0.047. In addition, in assay [2] (setting [4]), the “Reactivity of antisera with peptide” value turned out to be 0.060. In addition, the “Reactivity of antisera with peptide” value in assay [2] (setting [5]) is recorded as 0.042. In addition, the “Reactivity of antisera with peptide” value in assay [2] (setting [6]) is on record as 0.052.
On to “30 (QKLVFFAEDV; PEPTIDE (1)..(10) Abeta 15-24 or APP 770(Q686-V695); listed as Homo sapiens) [compound 30]”, for which, in assay [1], the “Epitope mapping … of subject P101” value is on record as 0; the “Epitope mapping … of subject P102” value came to 0; the “Epitope mapping … of subject P103” value was determined as 0; the “Epitope mapping … of subject P104” value was determined as 0. In addition, in assay [1], the “Epitope mapping … of subject P105” value was 0; the “Epitope mapping … of subject P106” value worked out at 0; the “Epitope mapping … of subject P107” value worked out at 0; the “Epitope mapping … of subject P108” value is reported as 0. In addition, in assay [1], the “Epitope mapping … of subject P109” value is given as 0; the “Epitope mapping … of subject P201” value was 0; the “Epitope mapping … of subject P202” value was 0; the “Epitope mapping … of subject P203” value came out at 0. Further, in assay [1], the “Epitope mapping … of subject P204” value was 0; the “Epitope mapping … of subject P205” value is on record as 0; the “Epitope mapping … of subject P206” value was 0; the “Epitope mapping … of subject P207” value was 0. In assay [1], the “Epitope mapping … of subject P208” value is listed as 0; the “Epitope mapping … of subject P209” value is 0; the “Epitope mapping … of subject P210” value turned out to be 0. The “Reactivity of antisera with peptide” value in assay [2] (setting [3]) worked out at 0.043. Further, in assay [2] (setting [4]), the “Reactivity of antisera with peptide” value came out at 0.055. In addition, the “Reactivity of antisera with peptide” value in assay [2] (setting [5]) is 0.062. Moreover, the “Reactivity of antisera with peptide” value in assay [2] (setting [6]) is recorded as 0.059.
On to “20 (RHDSGYEVHH; PEPTIDE (1)..(10) Abeta 5-14 or APP 770(R676-H685); listed as Homo sapiens) [compound 20]”, for which, in assay [1], the “Epitope mapping … of subject P101” value stood at 0; the “Epitope mapping … of subject P102” value is reported as 0; the “Epitope mapping … of subject P103” value is 0; the “Epitope mapping … of subject P104” value was determined as 0. Besides, in assay [1], the “Epitope mapping … of subject P105” value was 0; the “Epitope mapping … of subject P106” value is listed as 0; the “Epitope mapping … of subject P107” value amounted to 0; the “Epitope mapping … of subject P108” value was found to be 0. In assay [1], the “Epitope mapping … of subject P109” value worked out at 0; the “Epitope mapping … of subject P201” value turned out to be 0; the “Epitope mapping … of subject P202” value is given as 0; the “Epitope mapping … of subject P203” value is 0. For the same substance, in assay [1], the “Epitope mapping … of subject P204” value was determined as 0; the “Epitope mapping … of subject P205” value is on record as 0; the “Epitope mapping … of subject P206” value was 0; the “Epitope mapping … of subject P207” value was found to be 0. Besides, in assay [1], the “Epitope mapping … of subject P208” value is listed as 0; the “Epitope mapping … of subject P209” value was determined as 0; the “Epitope mapping … of subject P210” value is on record as 0. Moreover, the “Reactivity of antisera with peptide” value in assay [2] (setting [3]) was 0.296. Besides, the “Reactivity of antisera with peptide” value in assay [2] (setting [4]) was found to be 0.400. In addition, the “Reactivity of antisera with peptide” value in assay [2] (setting [5]) amounted to 0.453. Further, the “Reactivity of antisera with peptide” value in assay [2] (setting [6]) came to 0.461.
On to “21 (HDSGYEVHHQ; PEPTIDE (1)..(10) Abeta 6-15 or APP 770(H677-Q686); listed as Homo sapiens) [compound 21]”, for which, in assay [1], the “Epitope mapping … of subject P101” value stood at 0; the “Epitope mapping … of subject P102” value turned out to be 0; the “Epitope mapping … of subject P103” value is recorded as 0; the “Epitope mapping … of subject P104” value is reported as 0. Moreover, in assay [1], the “Epitope mapping … of subject P105” value worked out at 0; the “Epitope mapping … of subject P106” value came to 0; the “Epitope mapping … of subject P107” value came to 0; the “Epitope mapping … of subject P108” value is 0. Moreover, in assay [1], the “Epitope mapping … of subject P109” value is given as 0; the “Epitope mapping … of subject P201” value was found to be 0; the “Epitope mapping … of subject P202” value stood at 0; the “Epitope mapping … of subject P203” value is reported as 0. Besides, in assay [1], the “Epitope mapping … of subject P204” value stood at 0; the “Epitope mapping … of subject P205” value worked out at 0; the “Epitope mapping … of subject P206” value is on record as 0; the “Epitope mapping … of subject P207” value is listed as 0. Also, in assay [1], the “Epitope mapping … of subject P208” value was found to be 0; the “Epitope mapping … of subject P209” value is listed as 0; the “Epitope mapping … of subject P210” value is on record as 0. The “Reactivity of antisera with peptide” value in assay [2] (setting [3]) is listed as 0.266. Further, the “Reactivity of antisera with peptide” value in assay [2] (setting [4]) stood at 0.494. The “Reactivity of antisera with peptide” value in assay [2] (setting [5]) is 0.419. Moreover, the “Reactivity of antisera with peptide” value in assay [2] (setting [6]) stood at 0.332.
